Experimental data published in PMC11758266, “Lipid-Modulated, Graduated Inhibition of N-Glycosylation Pathway Priming Suggests Wide Tolerance of ER Proteostasis to Stress” (ACS Central Science, 2024).

Key:
[1] = biological target: T1, DPAGT1 (Homo sapiens, UniProt Q9H3H5); assay: Heat-induced denaturation assay of DPAGT1 with bound ligand; assay type: binding; details: heat-induced denaturation; DPAGT1 alone 51.7 ± 0.2 °C
T1 sequence (Q9H3H5 1-408): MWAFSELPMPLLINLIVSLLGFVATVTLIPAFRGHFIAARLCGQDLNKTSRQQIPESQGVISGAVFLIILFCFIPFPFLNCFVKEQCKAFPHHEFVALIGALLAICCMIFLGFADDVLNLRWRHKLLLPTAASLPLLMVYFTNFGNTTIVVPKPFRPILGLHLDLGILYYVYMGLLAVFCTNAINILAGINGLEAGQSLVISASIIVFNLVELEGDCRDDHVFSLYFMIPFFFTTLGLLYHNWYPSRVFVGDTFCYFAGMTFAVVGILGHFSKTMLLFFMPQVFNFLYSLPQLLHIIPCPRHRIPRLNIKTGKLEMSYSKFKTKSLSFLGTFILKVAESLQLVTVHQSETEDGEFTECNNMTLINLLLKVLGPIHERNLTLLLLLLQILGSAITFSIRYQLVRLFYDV
Excerpt: The structure of DPAGT1 in complex with the archetypal scaffold natural product tunicamycin[21] […] Trp122 moves so as to use its indole moiety to hydrophobically provide a binding “cap” or “lid” over the proximal portion of the 10′-N lipid chain.

[2] = biological target: T2, DPAGT1 (Homo sapiens, UniProt Q9H3H5); assay: DPAGT1 radiometric in vitro activity assay (end point, phosphorimaging of radio-TLC); assay type: biochemical; details: for % Activity of DPAGT1 in the presence of a tunicamycin analogue compared to a negative control (GFB): Table S1, analogue 1 µM, DPAGT1 1 µM, dolichyl monophosphate 50 µM, UDP-GlcNAc(1-14C) 50 µM, 37 °C, 21 min, three biological replicates; for DPAGT1 inhibition (in words): inhibitor 1 µM, enzyme:inhibitor 1:1, substrates 50 µM
T2 construct: full-length DPAGT1 bearing an additional tobacco etch virus (TEV) protease-cleavable N-terminal His6 tag; His6 with TEV protease cleavage site ([…]/S leader) (N, cleaved yes); made in house; host or cells: Spodoptera frugiperda Sf9 insect cells (baculovirus, pFB-LIC-Bse vector)
T2 sequence (Q9H3H5 with tags, fused parts or gaps): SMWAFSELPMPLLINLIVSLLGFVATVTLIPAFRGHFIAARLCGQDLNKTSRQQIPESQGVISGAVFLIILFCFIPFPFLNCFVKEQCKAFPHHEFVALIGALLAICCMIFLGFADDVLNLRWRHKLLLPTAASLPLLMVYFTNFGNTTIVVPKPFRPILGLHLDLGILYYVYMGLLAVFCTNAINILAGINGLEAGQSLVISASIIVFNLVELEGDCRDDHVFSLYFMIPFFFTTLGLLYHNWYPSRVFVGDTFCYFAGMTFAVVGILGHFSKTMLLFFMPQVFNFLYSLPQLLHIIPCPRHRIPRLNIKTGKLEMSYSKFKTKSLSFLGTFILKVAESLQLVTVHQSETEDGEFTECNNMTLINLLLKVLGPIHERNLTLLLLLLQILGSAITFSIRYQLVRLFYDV
Excerpt: Figure 2 Design, synthesis and in vitro inhibitory activity of lipid-altered tunicamycins. (A) Structure of DPAGT1 in complex with tunicamycin[21] showing key interactions primarily along TMH5 that in concert with a Trp122 “lid” create the lipid-engagement site (blue). This engagement contrasts with a small, gated pocket below bounded primarily by Leu293 in which only smaller moieties (here an acetamide) are accommodated (red). (B) Guided by this structure, as an apparent snapshot of a Michaelis complex-like mode of binding, modulation at two acyl sites in the core scaffold was explored. […] Semisynthesis allowed generation of graduated lipid tunicamycin analogues through regiochemical differentiation in carbamoylation to generate two key divergent intermediates: Tun-0E,0G and Tun-0E,2G. Subsequent differential acylations allow for generation of both symmetric and asymmetric Tun-XE,YG analogues. Reagents and conditions: (a) Ac2O, pyridine; (b) Boc2O, DMAP, THF; (c) NaOMe, MeOH; (d) 4 M HCl in dioxane, MeOH; (e) HATU, DIPEA, octanoic acid, DMF; (f) HATU, DIPEA, carboxylic acid; (g) HATU, DIPEA, 2 × carboxylic acid. (C) Residual % in vitro activity of DPAGT1 following incubation with analogues [DPAGT1 ([…]), MgCl2 (5 mM), Tun analogue ([…]), dolichol phosphate ([…]), and UDP-GlcNAc(1-^14C) ([…]) in 1% OGNG/CHS/cardiolipin] was assessed through end point assay at 37 °C via phosphorimaging. These were determined on the basis of three biological replicates, each using three technical replicates. Error bars shown are standard deviations.
The intended targeting and graduated modulation of DPAGT1’s PNPT activity was assessed in vitro using a highly pure recapitulated source. Briefly, full-length DPAGT1 bearing an additional tobacco etch virus (TEV) protease-cleavable N-terminal His6 tag was expressed using a baculovirus (DH10Bac)/insect cell (Spodoptera frugiperda Sf9) system using a pFB-LIC-Bse expression vector. DPAGT1 is an integral transmembrane enzyme, and thus, after harvesting and lysis, protein was extracted from the expression host membrane fraction using octyl glucose neopentyl glycol (OGNG) (1% w/v) and cholesterylhemisuccinate (CHS) (0.1% w/v) before isolation and purification by immobilized metal affinity chromatography (IMAC) using a Co^2+-charged (“TALON”) resin and elution with an imidazole gradient. To ensure that there were no confounding effects of the His6 tag, this was then cleaved with TEV protease followed by reverse IMAC and size exclusion chromatography in sequence.
Radiometric bisubstrate analyses allowed excellent sensitivity under the conditions necessary for proper recapitulation of the activity. Purified DPAGT1 (1 μM) was incubated with both substrates, dolichol monophosphate and radiolabeled UDP-N-acetyl-D-[1-^14C]glucosamine, at 50 μM, and the activity was determined directly by end point phosphor detection of product dolichol-PP-N-acetyl-D-[1-^14C]glucosamine formation.
MgCl2, 10 mM imidazole (pH 8.0), 200 mM NaCl , 2 mM TCEP (added fresh), 5% Glycerol, 0.18% OGNG, 0.01 8% CHS, 0.0036% cardiolipin) and the protein was eluted with WB supplemented with 250 mM imidazole (pH 8.0). The eluted protein was desalted using PD-10 columns (GE Healthcare) pre-equilibrated with gel filtration buffer (GFB: 20 mM HEPES (pH […]
cardiolipin). Desalted protein was subsequently treated with 10:1 TEV protease (w:w, protein:enzyme) overnight at 4 ° C. The TEV protease treated protein was separated from the 6-His-tagged enzymes and uncleaved DPAGT1 by incubation for 1 h with Talon resin (prepared as described above) at 4 °C for 1 h. The resin was collected in a column, the flowthrough collected and the protein sample was centrifuged at 21,500 rpm in a Beckman TA25.5 rotor for 10 min at 4 ° C. The supernatant was then concentrated to 0.5 mL using a 30 kDa cutoff PES concentrator (Corning), with mixing every 5 mins during concentration. The […]

[3] = tested on: ATF4; assay: ATF4 high-content imaging assay in primary human dermal fibroblasts; assay type: cell-based; details: 6 h, Figures S8–S12
Experimental: A targeted panel of tunicamycin analogues was tested in the ATF4 High Content Imaging assay to assess their ER stress generating ability in a primary cell line. Normal adult human dermal fibroblasts (NHDF-Ad, Lonza) were plated in a 96-well Phenoplate (PerkinElmer) at a seeding density of 10,000 cells per well in fibroblast growth medium (containing fibroblast basal medium, 10% FBS, 0.1% insulin, 0.1% hFGF-B, 0.1% Gentamicin/Amphotericin) and incubated at 37°C, 5% CO2. Treatment with pre-diluted compounds was performed after 24 hrs with final concentrations ranging from 10 µM – 5 nM (final DMSO concentration was 0.3%). Low control (0.3% DMSO final conc.) and high control (0.3 µM tunicamycin final conc.) wells were again included for assay normalization. Treated cells were incubated for 6 hrs at 37°C, 5% CO2 before fixing (4% PFA in PBS, 20 min at room temperature followed by washing (3x) with PBS). Direct ATF4 immunofluorescence staining was then performed, whereby cells were treated with a Coralite Plus 488-conjugated ATF4 Polyclonal antibody (CL488-10835, Proteintech) in a 1:100 dilution of Perm-block buffer (10% FBS, 0.3% TritonX-100 in PBS) for 2 hrs. Nuclei staining was then performed with DRAQ5 dye (ab108410, Abcam) at 1:1000 in PBS. Plates were imaged on a Leica SP8 confocal microscope equipped with 488 nm and 633 nm excitation and images were analysed using script-based algorithms as described for HEK cells above. […]

[4] = tested on: His-tagged IgG-Fc domain; assay: In cell glycoprotein inhibition assay (IgG-Fc expression, SDS-PAGE and Western blot); assay type: cell-based, human; details: HEK293T cells, 3 days, analogue 10 µM down to 0.5 nM (Tun-8E,2G 300 µM down to 15 nM), Figure S13

Row | Molecule | Tm,1/2 of DPAGT1 bound to ligand [1] | % Activity of DPAGT1 in the presence of a tunicamycin analogue compared to a negative control (GFB) [2] | DPAGT1 inhibition (in words) [2] | increase in ATF4 (in words) [3] | glycosylation state of expressed IgG-Fc (in words) [4]
1 | dolichol-1-phosphate [Dol-1-P] | 58.5 ± 0.3 °C | – | – | – | –
2 | CCCCCCCC(=O)N[C@H]1[C@H](O[C@H]2O[C@H](CO)[C@@H](O)[C@H](O)[C@H]2NC(=O)CCCCCCC)O[C@H](C[C@@H](O)[C@H]2O[C@@H](n3ccc(=O)[nH]c3=O)[C@H](O)[C@@H]2O)[C@H](O)[C@@H]1O [Tun-8E,8G] | – | 90.0% | little to no significant inhibition | only Tun itself leads to an increase in ATF4 | expression of intact glycosylated protein
3 | CCCCCCCCC(=O)N[C@H]1[C@H](O[C@H]2O[C@H](CO)[C@@H](O)[C@H](O)[C@H]2NC(=O)CCC)O[C@H](C[C@@H](O)[C@H]2O[C@@H](n3ccc(=O)[nH]c3=O)[C@H](O)[C@@H]2O)[C@H](O)[C@@H]1O [Tun-9E,4G] | – | 83.6% | did not cause a significant reduction in DPAGT1 activity | – | –
4 | CCCCCCCCC(=O)N[C@H]1[C@@H](O[C@@H]2O[C@H](C[C@@H](O)[C@H]3O[C@@H](n4ccc(=O)[nH]c4=O)[C@H](O)[C@@H]3O)[C@H](O)[C@H](O)[C@H]2NC(=O)CC(C)C)O[C@H](CO)[C@@H](O)[C@@H]1O [Tun-i5E,9G] | – | 90.7% | little to no significant inhibition | – | –
